Measured values published in paper PMC4309955 (Scientific Reports, 2015).

Columns and labels:
[1] = target: T1, human AT1R (angiotensin II type 1 receptor) (Homo sapiens, UniProt P30556); assay: inhibition of AngII-induced beta-arrestin activation, cell impedance; assay type: cell-based
T1 sequence (P30556 1-359): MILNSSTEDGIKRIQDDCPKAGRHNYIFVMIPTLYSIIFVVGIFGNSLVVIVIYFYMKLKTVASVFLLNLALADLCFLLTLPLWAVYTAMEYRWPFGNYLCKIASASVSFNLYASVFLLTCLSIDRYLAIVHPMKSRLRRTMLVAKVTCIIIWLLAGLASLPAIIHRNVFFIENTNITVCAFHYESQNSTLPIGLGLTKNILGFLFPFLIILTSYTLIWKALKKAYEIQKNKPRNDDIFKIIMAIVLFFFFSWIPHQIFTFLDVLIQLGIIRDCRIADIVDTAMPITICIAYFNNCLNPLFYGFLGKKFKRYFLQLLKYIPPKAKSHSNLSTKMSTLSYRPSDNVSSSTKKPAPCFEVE

[2] = target: T1, human AT1R (angiotensin II type 1 receptor); assay: inhibition of AngII-induced G protein activation, cell impedance; assay type: cell-based

CCOc1nc2cccc(C(=O)O)c2n1Cc1ccc(-c2ccccc2-c2noc(=O)[nH]2)cc1 [Azilsartan]
IC50 [1]: 1.6 nM | IC50 [2]: 1.6 nM

CCOc1nc2cccc(C(=O)O)c2n1Cc1ccc(-c2ccccc2-c2nnn[nH]2)cc1 [Candesartan]
IC50 [1]: 0.7 nM | IC50 [2]: 2 nM

CCCCc1ncc(/C=C(\Cc2cccs2)C(=O)O)n1Cc1ccc(C(=O)O)cc1 [Eprosartan]
IC50 [1]: 7.5 nM | IC50 [2]: 4.7 nM

CCCc1nc(C(C)(C)O)c(C(=O)O)n1Cc1ccc(-c2ccccc2-c2nnn[nH]2)cc1 [Olmesartan]
IC50 [1]: 20.4 nM | IC50 [2]: 14.5 nM
